# Tests used:
# [1] = test system: CHO; assay: Selectivity index, ratio of EC50 for CB1R (unknown origin) CHO cells stably expressing Galpha16 to EC50 for CB2R (unknown origin) CHO cells stably expressing Galpha16; type: cell-based; settings: Homo sapiens
# [2] = molecular target: T1, Cannabinoid receptor 2 (Homo sapiens, UniProt P34972); assay: Agonist activity at CB2R (unknown origin) CHO cells stably expressing Galpha16 assessed as increase in intracellular calcium level by microplate reader based assay relative to CP55940; type: functional, cell-based
# T1 sequence (P34972 whole entry): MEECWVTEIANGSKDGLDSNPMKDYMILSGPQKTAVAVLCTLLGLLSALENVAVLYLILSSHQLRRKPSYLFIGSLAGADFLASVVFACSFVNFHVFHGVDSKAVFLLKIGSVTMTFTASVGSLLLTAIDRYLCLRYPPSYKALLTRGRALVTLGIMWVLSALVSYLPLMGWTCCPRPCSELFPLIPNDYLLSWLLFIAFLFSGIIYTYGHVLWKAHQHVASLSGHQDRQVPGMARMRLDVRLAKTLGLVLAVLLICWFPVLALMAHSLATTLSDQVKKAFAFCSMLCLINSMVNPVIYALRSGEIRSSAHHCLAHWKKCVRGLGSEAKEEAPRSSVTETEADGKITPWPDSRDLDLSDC
# [3] = molecular target: T1, Cannabinoid receptor 2; assay: Agonist activity at CB2R (unknown origin) CHO cells stably expressing Galpha16 assessed as increase in intracellular calcium level by microplate reader based assay; type: functional, cell-based
# [4] = molecular target: T2, Cannabinoid receptor 1 (Homo sapiens, UniProt P21554); assay: Agonist activity at CB1R (unknown origin) CHO cells stably expressing Galpha16 assessed as increase in intracellular calcium level by microplate reader based assay; type: functional, cell-based
# T2 sequence (P21554 whole entry): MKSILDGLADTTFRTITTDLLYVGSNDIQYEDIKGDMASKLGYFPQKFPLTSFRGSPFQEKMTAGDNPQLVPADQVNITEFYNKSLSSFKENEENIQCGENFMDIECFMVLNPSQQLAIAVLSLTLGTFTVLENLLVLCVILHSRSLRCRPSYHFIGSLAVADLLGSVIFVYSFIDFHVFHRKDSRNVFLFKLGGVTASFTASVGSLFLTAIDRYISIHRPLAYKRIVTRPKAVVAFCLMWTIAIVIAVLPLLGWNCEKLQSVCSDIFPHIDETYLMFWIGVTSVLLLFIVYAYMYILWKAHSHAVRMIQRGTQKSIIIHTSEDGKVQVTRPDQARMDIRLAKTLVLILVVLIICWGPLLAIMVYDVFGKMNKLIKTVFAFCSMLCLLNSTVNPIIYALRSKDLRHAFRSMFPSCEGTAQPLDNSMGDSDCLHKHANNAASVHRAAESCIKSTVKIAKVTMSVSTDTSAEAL
# [5] = molecular target: T1, Cannabinoid receptor 2; assay: Antagonist activity against CB2R (unknown origin) CHO cells stably expressing Galpha16 assessed as inhibition of CP55940-induced increase in intracellular calcium level pre-treated 10 mins before CP55940 stimulation by microplate reader based assay; type: functional, cell-based
# [6] = molecular target: T2, Cannabinoid receptor 1; type: functional, cell-based, CHO
# [7] = molecular target: T1, Cannabinoid receptor 2; assay: Antagonist activity against CB2R (unknown origin) CHO cells stably expressing Galpha16 assessed as inhibition of CP55940-induced increase in intracellular calcium level pre-treated 10 mins before CP55940 stimulation by microplate reader based assay relative to […]; type: functional, cell-based
# [8] = test system: CHO; assay: Selectivity index, ratio of IC50 for CB1R (unknown origin) CHO cells stably expressing Galpha16 to IC50 for CB2R (unknown origin) CHO cells stably expressing Galpha16; type: cell-based; settings: Homo sapiens
Structure (SMILES),Ratio EC50 [1],Emax [2] [%],EC50 ([3]; read-out: EC50) [nM],EC50 [4] [nM],EC50 ([3]; read-out: pEC50 (converted)) [nM],IC50 [5] [nM],IC50 [6] [nM],Emax [7] [%],Ratio IC50 [8]
CCCN1C(=O)/C(=C/NC(C)(C)C)C(=O)c2cccc(C)c21,> 275,126,36.3,> 10000,–,–,–,–,–
CCCCN1C(=O)/C(=C/NC(CC)CC)C(=O)c2cccc(C)c21,> 88.5,137,113,> 10000,112,–,–,–,–
CCCCCCN1C(=O)/C(=C/NC2CCCCC2)C(=O)c2cc(OC)ccc21,–,–,–,–,–,> 10000,> 10000,–,–
Cc1cccc2c1N(CC1CC1)C(=O)/C(=C/NC1CCCCC1)C2=O,> 14.9,111,670,> 10000,–,–,–,–,–
CCCCN1C(=O)/C(=C/NCC2CCC2)C(=O)c2cccc(C)c21,> 45.5,87.7,220,> 10000,–,–,–,–,–
CCN1C(=O)/C(=C/NC2CCCCC2)C(=O)c2cccc(C)c21,> 0.559,95,17900,> 10000,–,–,–,–,–
Cc1c(C(=O)NN2CCCCC2)nn(-c2ccc(Cl)cc2Cl)c1-c1ccc(Cl)cc1,–,–,–,–,–,–,–,100,–
CCCCN1C(=O)/C(=C/NC2CC2)C(=O)c2cccc(C)c21,> 19.9,81.8,503,> 10000,–,–,–,–,–
CCCCCN1C(=O)/C(=C/NC2CCCCC2)C(=O)c2cccc(C)c21,> 31.3,70.3,320,> 10000,–,–,–,–,–
CCCCCN1C(=O)/C(=C/NC2CCCCC2)C(=O)c2cc(OC)ccc21,–,–,–,–,–,1650,> 10000,98.3,> 6.06
CCCCCN1C(=O)/C(=C/NC2CCCCC2)C(=O)c2ccccc21,> 21.2,101,472,> 10000,–,–,–,–,–
CCCCN1C(=O)/C(=C/NC23CC4CC(CC(C4)C2)C3)C(=O)c2cccc(C)c21,> 31.5,137,317,> 10000,–,–,–,–,–
CCCCCN1C(=O)/C(=C/NC2CCCCC2)C(=O)c2cc(Cl)cc(C)c21,–,–,–,–,–,1480,> 10000,95,> 6.76
CCCCCN1C(=O)/C(=C/NC2CCCCC2)C(=O)c2cc(C)ccc21,–,–,–,–,–,> 10000,> 10000,–,–
CCCCN1C(=O)/C(=C/NCCC)C(=O)c2cccc(C)c21,–,–,> 10000,> 10000,–,–,–,–,–
CCCCCN1C(=O)/C(=C/NC2CCCCC2)C(=O)c2cc(C(F)(F)F)ccc21,–,–,–,–,–,> 10000,> 10000,–,–
CCCCCN1C(=O)/C(=C/NC2CCCCC2)C(=O)c2ccc(C)cc21,–,–,–,–,–,9.03,> 10000,96.3,> 1110
CCCCN1C(=O)/C(=C/NN2CCOCC2)C(=O)c2cccc(C)c21,> 21,78.7,477,> 10000,–,–,–,–,–
CCCCCN1C(=O)/C(=C/NC2CCCCC2)C(=O)c2ccc(OC)cc21,–,–,–,–,–,194,> 10000,97.4,> 51.5
CCCCN1C(=O)/C(=C/NC(C)C)C(=O)c2cccc(C)c21,–,–,> 10000,> 10000,–,–,–,–,–
CCCCN1C(=O)/C(=C/NC(C)(C)CO)C(=O)c2cccc(C)c21,13.5,127,41.3,557,41,–,–,–,–
CCCCN1C(=O)/C(=C/NCc2cccnc2)C(=O)c2cccc(C)c21,–,–,> 10000,> 10000,–,–,–,–,–
CCCCN1C(=O)/C(=C/NC2CCCCC2)C(=O)c2c(C)cccc21,> 29.3,104,341,> 10000,–,–,–,–,–
CCCCN1C(=O)/C(=C/NC(C)C(C)C)C(=O)c2cccc(C)c21 (configuration not stated),> 121,120,82.7,> 10000,83,–,–,–,–
C=CCCN1C(=O)/C(=C/NC2CCCCC2)C(=O)c2cccc(C)c21,> 13.4,135,749,> 10000,–,–,–,–,–
O=C(NCC1CCOCC1)c1cnc(Nc2ccc(Cl)cc2Cl)nc1C(F)(F)F [GW842166X],> 22.9,91.6,437,> 10000,–,–,–,–,–
C=CCCN1C(=O)/C(=C/NC(C)(C)C)C(=O)c2cccc(C)c21,> 133,92.6,75.3,> 10000,–,–,–,–,–
CCCCOc1c(OC)ccc2cc(C(=O)NCCc3ccc(N)cc3)c(=O)[nH]c12,–,–,–,–,–,–,> 10000,102,> 18.3
Cc1cccc2c1N(CC1CC1)C(=O)/C(=C/NC(C)(C)C)C2=O,> 96.2,140,104,> 10000,–,–,–,–,–
CCCCN1C(=O)/C(=C/Nc2ccccn2)C(=O)c2cccc(C)c21,> 4.18,47.2,2390,> 10000,–,–,–,–,–
